Reference: patent US20260209234A1, “SUBSTITUTED DIHYDROPYRROLO[3,4-D]PYRIMIDINE COMPOUNDS AND THEIR USE IN TREATING MEDICAL CONDITIONS” (Karuna Therapeutics, Inc., priority 2022, published 2026)

Legend:
rM4 receptors = target: T1, rM4 receptors (Rattus norvegicus, UniProt P08485); test: Rat M4 PAM pERK assay; assay type: cell-based; conditions: CHO cells expressing rM4; EC20 of acetylcholine (10 nM final); TR-FRET
T1 construct: expressed in transfected cells; host or cells: CHO cells
T1 sequence (P08485 1-478): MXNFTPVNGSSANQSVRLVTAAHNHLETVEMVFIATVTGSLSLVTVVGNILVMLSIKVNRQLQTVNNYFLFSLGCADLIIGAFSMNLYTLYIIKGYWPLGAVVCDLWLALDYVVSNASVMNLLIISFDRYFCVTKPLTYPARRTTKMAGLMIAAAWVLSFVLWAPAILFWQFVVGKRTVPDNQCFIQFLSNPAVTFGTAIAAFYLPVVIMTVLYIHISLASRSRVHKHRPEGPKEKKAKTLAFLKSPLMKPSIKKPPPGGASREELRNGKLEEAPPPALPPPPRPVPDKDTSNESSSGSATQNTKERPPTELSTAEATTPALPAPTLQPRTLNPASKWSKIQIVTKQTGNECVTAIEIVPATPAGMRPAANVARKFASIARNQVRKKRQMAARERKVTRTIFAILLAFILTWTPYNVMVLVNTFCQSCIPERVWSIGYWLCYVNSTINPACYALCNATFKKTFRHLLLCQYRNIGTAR
Experimental: (§1) Chinese hamster ovary (CHO) cells expressing either hM4 or rM4 receptors were frozen in assay ready vials (5×10^6 cells/vial) after bulking-up in culture. The day before an assay, vial(s) were thawed and cells seeded in 384 well white proxiplates at 1000/well for hM4 cells and at 2000/well for rM4 cells, in 10 μL of growth media (Hams/F12 with glutamax and 10% FCS) and incubated overnight at 37° C./5% CO2.
(§2) On the following morning, the growth media was removed by ‘flicking out’ over a bin, patting the inverted plate onto tissue, and then replacing with 10 μL of wash media (Hams/F12 with glutamax and 8 mM HEPES, NB: serum free). Then, the wash media was removed in the same way and replaced with 8 μL/well of the serum free media. Plates were then re-incubated for a further 4 hours at 37° C./5% CO2.
(§3) Compounds for testing were solubilized to 10 mM in DMSO and compound addition plates, consisting of ten-point concentration response curves (CRC) in duplicate points (10 μM top concentration, 1/2 log dilution series), were prepared by acoustic dispensing and the compound management group.
(§4) After the 4-hour incubation in serum free media, a 4 μL aliquot of the 3× compound solution containing an EC20 of acetylcholine (10 nM final concentration) was added to the cell plate using a 384 well plate to plate transfer. Then, the plate lid was replaced, and the cells incubated for 5 mins at 37° C./5% CO2. Following this final incubation, all cellular processes were stopped by the addition of 4 μL/well of lysis and blocking buffer and plates were incubated for 30 minutes at RT on an orbital shaker (gentle setting). Then, a final addition of 4 μL/well of antibody detection mix, containing both the Europium-Cryptate (donor) and d2 (acceptor) tagged detection components, was added followed by a further 2-hour incubation at RT, and then the plate was read using a TR-FRET (time resolved fluorescence resonance energy transfer) based protocol.

hM4 receptors = target: T2, hM4 receptors (Homo sapiens, UniProt P08173); test: Human M4 PAM pERK assay; assay type: cell-based; conditions: CHO cells expressing hM4; EC20 of acetylcholine (10 nM final); TR-FRET
T2 construct: expressed in transfected cells; host or cells: CHO cells
T2 sequence (P08173 1-479): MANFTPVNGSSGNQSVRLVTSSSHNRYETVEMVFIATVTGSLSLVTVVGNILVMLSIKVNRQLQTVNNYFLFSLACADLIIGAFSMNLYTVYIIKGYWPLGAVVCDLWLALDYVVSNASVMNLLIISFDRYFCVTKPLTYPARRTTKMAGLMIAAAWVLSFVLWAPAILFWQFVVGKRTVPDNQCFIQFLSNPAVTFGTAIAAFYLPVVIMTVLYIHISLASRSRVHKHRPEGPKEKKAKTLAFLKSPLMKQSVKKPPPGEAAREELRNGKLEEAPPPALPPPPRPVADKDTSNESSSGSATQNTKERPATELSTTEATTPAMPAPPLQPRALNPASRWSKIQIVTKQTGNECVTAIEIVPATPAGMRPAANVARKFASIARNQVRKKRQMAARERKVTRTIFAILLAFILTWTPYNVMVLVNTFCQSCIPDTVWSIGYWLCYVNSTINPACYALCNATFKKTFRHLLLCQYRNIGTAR
Experimental: as §1, §2, §3, §4

| EC50 (rM4 receptors) [nM] | EC50 (hM4 receptors) [nM] | Structure (SMILES) |
| --- | --- | --- |
| 500 to 2000 | 500 to 2000 | COc1nc(C)nc2c1CN(C(=O)CC1CN(c3ccnc(C(F)(F)F)c3)C1)C2C (racemic) [Compound I-61, 1-(4-Methoxy-2,7-dimethyl-5,7-dihydro-6H-pyrrolo[3,4-d]pyrimidin-6-yl)-2-(1-(2-(trifluoromethyl)pyridin-4-yl)azetidin-3-yl)ethan-1-one] |
| 500 to 2000 | 100 to 500 | COc1nc(C#N)nc2c1C(C)N(C(=O)CC1CN(c3ncns3)C1)C2 (single isomer, unassigned) [Compound I-3, 6-(2-(1-(1,2,4-Thiadiazol-5-yl)azetidin-3-yl)acetyl)-4-methoxy-5-methyl-6,7-dihydro-5H-pyrrolo[3,4-d]pyrimidine-2-carbonitrile] |
| ≤ 100 | ≤ 100 | COc1nc(C#N)nc2c1C(C)N(C(=O)CC1CN(c3cc(F)cc(F)c3)C1)C2 (single isomer, unassigned) [Compound I-9, 6-(2-(1-(3,5-Difluorophenyl)azetidin-3-yl)acetyl)-4-methoxy-5-methyl-6,7-dihydro-5H-pyrrolo[3,4-d]pyrimidine-2-carbonitrile] |
| ≥ 2000 | ≥ 2000 | COc1nc(C#N)nc2c1C(C)N(C(=O)CC1CN(c3cc(F)cc(F)c3)C1)C2 (single isomer, unassigned) [Compound I-10, 6-(2-(1-(3,5-Difluorophenyl)azetidin-3-yl)acetyl)-4-methoxy-5-methyl-6,7-dihydro-5H-pyrrolo[3,4-d]pyrimidine-2-carbonitrile] |
| 100 to 500 | 100 to 500 | COc1nc(C#N)nc2c1C(C)N(C(=O)CC1CN(c3cccc(C(F)(F)F)c3)C1)C2 (single isomer, unassigned) [Compound I-16, 4-Methoxy-5-methyl-6-(2-(1-(3-(trifluoromethyl)phenyl)azetidin-3-yl)acetyl)-6,7-dihydro-5H-pyrrolo[3,4-d]pyrimidine-2-carbonitrile] |
| ≥ 2000 | ≥ 2000 | COc1cc(N2CC(CC(=O)N3Cc4nc(C#N)nc(OC)c4C3C)C2)ccn1 (single isomer, unassigned) [Compound I-17, 4-Methoxy-6-(2-(1-(2-methoxypyridin-4-yl)azetidin-3-yl)acetyl)-5-methyl-6,7-dihydro-5H-pyrrolo[3,4-d]pyrimidine-2-carbonitrile] |
| 500 to 2000 | ≤ 100 | COc1cc(N2CC(CC(=O)N3Cc4nc(C#N)nc(OC)c4C3C)C2)ccn1 (single isomer, unassigned) [Compound I-18, 4-Methoxy-6-(2-(1-(2-methoxypyridin-4-yl)azetidin-3-yl)acetyl)-5-methyl-6,7-dihydro-5H-pyrrolo[3,4-d]pyrimidine-2-carbonitrile] |
| ≥ 2000 | 500 to 2000 | COc1nc(C#N)nc2c1C(C)N(C(=O)CC1CN(c3cncnc3)C1)C2 (single isomer, unassigned) [Compound I-26, 4-Methoxy-5-methyl-6-(2-(1-(pyrimidin-5-yl)azetidin-3-yl)acetyl)-6,7-dihydro-5H-pyrrolo[3,4-d]pyrimidine-2-carbonitrile] |
| 500 to 2000 | ≤ 100 | COc1nc(C)nc2c1C(C)N(C(=O)CC1CN(c3cncnc3)C1)C2 (single isomer, unassigned) [Compound I-59, 1-(4-Methoxy-2,5-dimethyl-5,7-dihydro-6H-pyrrolo[3,4-d]pyrimidin-6-yl)-2-(1-(pyrimidin-5-yl)azetidin-3-yl)ethan-1-one] |
| 100 to 500 | 500 to 2000 | COc1nc(C#N)nc2c1C(C)N(C(=O)CC1C(C)N(c3ccnc(C(F)(F)F)c3)C1C)C2 (centres unmarked) [Compound I-40, 6-(2-(2,4-Dimethyl-1-(2-(trifluoromethyl)pyridin-4-yl)azetidin-3-yl)acetyl)-4-methoxy-5-methyl-6,7-dihydro-5H-pyrrolo[3,4-d]pyrimidine-2-carbonitrile] |
| 500 to 2000 | 100 to 500 | COc1nc(C)nc2c1CN(C(=O)CC1CN(c3cccnc3)C1)C2 [Compound I-41, 1-(4-Methoxy-2-methyl-5,7-dihydro-6H-pyrrolo[3,4-d]pyrimidin-6-yl)-2-(1-(pyridin-3-yl)azetidin-3-yl)ethan-1-one] |
| ≥ 2000 | 500 to 2000 | CNc1nc(C)nc2c1CN(C(=O)CC1CN(c3cccnc3)C1)C2 [Compound I-72, 1-(2-Methyl-4-(methylamino)-5,7-dihydro-6H-pyrrolo[3,4-d]pyrimidin-6-yl)-2-(1-(pyridin-3-yl)azetidin-3-yl)ethan-1-one] |
| ≥ 2000 | 500 to 2000 | Cc1nc2c(c(NC3CC3)n1)CN(C(=O)CC1CN(c3cccnc3)C1)C2 [Compound I-73, 1-(4-(Cyclopropylamino)-2-methyl-5,7-dihydro-6H-pyrrolo[3,4-d]pyrimidin-6-yl)-2-(1-(pyridin-3-yl)azetidin-3-yl)ethan-1-one] |
| ≥ 2000 | ≥ 2000 | COc1nc(C2COC2)nc2c1CN(C(=O)CC1CN(c3ccnc(C(F)(F)F)c3)C1)C2 [Compound I-77, 1-(4-Methoxy-2-(oxetan-3-yl)-5,7-dihydro-6H-pyrrolo[3,4-d]pyrimidin-6-yl)-2-(1-(2-(trifluoromethyl)pyridin-4-yl)azetidin-3-yl)ethan-1-one] |
| 500 to 2000 | 100 to 500 | COc1nc(C(F)(F)F)nc2c1CN(C(=O)CC1CN(c3cccnc3)C1)C2 [Compound I-78, 1-(4-Methoxy-2-(trifluoromethyl)-5,7-dihydro-6H-pyrrolo[3,4-d]pyrimidin-6-yl)-2-(1-(pyridin-3-yl)azetidin-3-yl)ethan-1-one] |
| ≥ 2000 | 500 to 2000 | COc1nc(OC(F)F)nc2c1CN(C(=O)CC1CN(c3cccnc3)C1)C2 [Compound I-80, 1-(2-(Difluoromethoxy)-4-methoxy-5,7-dihydro-6H-pyrrolo[3,4-d]pyrimidin-6-yl)-2-(1-(pyridin-3-yl)azetidin-3-yl)ethan-1-one] |
